Measured values from patent publication US9469608B2, “Thrombin inhibitors” (Merck Sharp & Dohme Corp., priority 2012, dated 2016).

The compounds below were run against human α-thrombin (Homo sapiens (Human), UniProt P00734) (assay: In vitro assay for determining proteinase inhibition (thrombin Ki)). Conditions: not given.
Assay type: biochemical
Description: NMR determinations were made using 400 MHz field strength. Ki data was obtained according to the procedure described in Lewis, et al. Thromb. […] Reactions sensitive to moisture or air were performed under nitrogen or argon using anhydrous solvents and reagents. […] Typically, the analytical LC-MS system used consisted of a Waters ZQ platform with electrospray ionization in positive ion detection mode with an Agilent 1100 series HPLC with autosampler. The column was usually a Water Xterra MS C18, 3.0×50 mm, 5 μm. The flow rate was 1 mL/min, and the injection volume was 10 μL. UV detection was in the range 210-400 nm. […] Preparative HPLC purifications were usually performed using a mass spectrometry directed system. […] The mobile phases consisted of mixtures of acetonitrile (10-100%) in water containing 0.1% TFA. Flow rates were maintained at 50 mL/min, the injection volume was 1800 μL, and the UV detection range was 210-400 nm. Mobile phase gradients were optimized for the individual compounds. Reactions performed using microwave irradiation were normally carried out using an Emrys Optimizer manufactured by Personal Chemistry, or an Initiator manufactured by Biotage. Concentration of solutions was carried out on a rotary evaporator under reduced pressure. Flash chromatography was usually performed using a Biotage Flash Chromatography apparatus (Dyax Corp.) on silica gel ([…], 60 Å pore size) in pre-packed cartridges of the size noted. ^1H NMR spectra were acquired at 500 MHz spectrometers in CDCl3 solutions unless otherwise noted. Chemical shifts were reported in parts per million (ppm). Tetramethylsilane (TMS) was used as internal reference in CD3Cl solutions, and residual CH3OH peak or TMS was used as internal reference in CD3OD solutions. Coupling constants (J) were reported in hertz (Hz). Chiral analytical chromatography was performed on one of Chiralpak AS, Chiralpak AD, Chiralcel OD, Chiralcel IA, or Chiralcel OJ columns (250×4.6 mm) (Daicel Chemical Industries, Ltd.) with noted percentage of either ethanol in hexane (% Et/Hex) or isopropanol in heptane (% IPA/Hep) as isocratic solvent systems. Chiral preparative chromatography was conducted on one of Chiralpak AS, Chiralpak AD, Chiralcel OD, Ciralcel IA, or Chiralcel OJ columns (20×250 mm) (Daicel Chemical Industries, Ltd.) with desired isocratic solvent systems identified on chiral analytical chromatography or by supercritical fluid (SFC) conditions. Celite® (Fluka) diatomite is diatomaceous earth, and can be referred to as “celite”.
Relevant in vitro assays are referenced in Morrissette, et al., Bioorg. […] The assays were carried out at 25° C. in 0.05 M TRIS buffer pH 7.4, 0.15 M NaCl, 0.1% PEG. Trypsin assays also contained 1 mM CaC12.
Concentrations of stock solutions of Z-GPR-afc were determined from measurements of absorbance at 380 nm of the 7-amino-4-trifluoromethyl coumarin produced upon complete hydrolysis of an aliquot of the stock solution by thrombin.
Activity assays were performed by diluting a stock solution of substrate at least tenfold to a final concentration ≦0.1 Km into a solution containing enzyme or enzyme equilibrated with inhibitor. Times required to achieve equilibration between enzyme and inhibitor were determined in control experiments. Initial velocities of product formation in the absence (Vo) or presence of inhibitor (Vi) were measured. Assuming competitive inhibition, and that unity is negligible compared Km/[S], [I]/e, and [I]/e (where [S], [I], and e respectively represent the total concentrations, of substrate, inhibitor and enzyme), the equilibrium constant (Ki) for dissociation of the inhibitor from the enzyme can be obtained from the dependence of Vo/Vi on [I] shown in the following equation.

Row | Compound | Ki [nM]
1 | NCc1ccc(Cl)cc1CNC(=O)[C@@H]1CCCN1C(=O)C1CNc2ccccc21 (stereo partly drawn) [Compound 25-5, (2S)-N-{2-(Aminomethyl)-5-chlorobenzyl}-1-(indoline-3-carbonyl)pyrrolidine-2-carboxamide bis(2,2,2-trifluoroacetate)] | 59

Same assay, conditions: 25° C., 0.05 M TRIS buffer pH 7.4, 0.15 M NaCl, 0.1% PEG; competitive inhibition assumed

Row | Compound | Ki [nM]
2 | NCc1ccc(Cl)cc1CNC(=O)[C@@H]1CCCN1C(=O)C1(O)CCc2cnccc21 (stereo partly drawn) [Compound 27-9] | 20
3 | NCc1ccc(Cl)cc1CNC(=O)[C@@H]1CCCN1C(=O)c1cc(-c2ccccn2)c[nH]1 [Compound 15-8, (S)—N-[{2-(Aminomethyl)-5-chlorobenzyl}-1-{4-(pyridin-2-yl)-1H-pyrrole-2-carbonyl}]pyrrolidine-2-carboxamide bis (2,2,2-trifluoroacetate)] | 22
4 | CC(C)(C)[C@@H](CCO)C(=O)N1CCC[C@H]1C(=O)NCc1cc(Cl)ccc1CN [Compound 1-12, (S)—N-[2-(Aminomethyl)-5-chlorobenzyl]-1-[(R)-2-(2-hydroxyethyl)-3,3-dimethylbutanoyl]pyrrolidine-2-carboxamide-2,2,2-trifluoroacetate] | 25
5 | NCc1ccc(Cl)cc1CNC(=O)[C@@H]1CCCN1C(=O)C1(O)CCCc2cnccc21 (stereo partly drawn) [Compound 31-7, (2S)-N-{2-(Aminomethyl)-5-chlorobenzyl}-1-(5-hydroxy-5,6,7,8-tetrahydroisoquinoline-5-carbonyl)pyrrolidine-2-carboxamide bis(2,2,2-trifluoroacetate)] | 4.8
6 | NCc1ccc(Cl)cc1CNC(=O)[C@@H]1CCCN1C(=O)C1NCc2ccccc21 (single isomer, unassigned) [Compound 23-4a, bis(2,2,2-trifluoroacetate)] | 77
7 | C[C@@]1(C(=O)NCc2cc(Cl)ccc2CN)CCCN1C(=O)c1ccc(Cl)[nH]1 [Compound 44, (S)-N-(2-(aminomethyl)-5-chlorobenzyl)-1-(5-chloro-1H-pyrrole-2-carbonyl)-2-methylpyrrolidine-2-carboxamide] | 104
8 | NCc1ccc(Cl)cc1CNC(=O)[C@@H]1CCCN1C(=O)c1cc(C(O)c2cccnc2)c[nH]1 (stereo partly drawn) [Compound 9-2, (2S)-N-{2-(Aminomethyl)-5-chlorobenzyl}-1-[4-{hydroxy(pyridine-3-yl)methyl}-1H-pyrrole-2-carbonyl]pyrrolidine-2-carboxamide] | 13
9 | CC(C)(C)[C@@H](O)C(=O)N1CCC[C@H]1C(=O)NCc1cc(Cl)ccc1CO [Compound 17-5, (S)—N-{5-Chloro-2-(hydroxymethyl)benzyl}-1-{(R)-2-hydroxy-3,3-dimethylbutanoyl}pyrrolidine-2-carboxamide] | 3500
10 | NCc1ccc(Cl)cc1CNC(=O)[C@@H]1CCCN1C(=O)C1c2ccccc2CS1(=O)=O (stereo partly drawn) [Compound 22-10, (2S)-N-{2-(Aminomethyl)-5-chlorobenzyl}-1-(2,2-dioxido-1,3-dihydrobenzo[a]thiophene-1-carbonyl)pyrrolidine-2-carboxamide-2,2,2-trifluoroacetate-2,2,2-trifluoroacetate] | 400
11 | NCc1ccc(Cl)cc1CNC(=O)[C@@H]1CCCN1C(=O)C1(O)CCc2ccncc21 (stereo partly drawn) [Compound 28-6, (2S)-N-{2-(aminomethyl)-5-chlorobenzyl}-1-(7-hydroxy-6,7-dihydro-5H-cyclopenta[c]pyridine-7-carbonyl)pyrrolidine-2-carboxamide bis (2,2,2-trifluoroacetate)] | 16
12 | Cc1ccc(C(=O)N2CCC[C@@]2(C)C(=O)NCc2cc(Cl)ccc2CN)[nH]1 [Compound 45, (S)-N-(2-(aminomethyl)-5-chlorobenzyl)-2-methyl-1-(5-methyl-1H-pyrrole-2-carbonyl)pyrrolidine-2-carboxamide] | 93
